Assay results reported in article PMC8556085, “Antimicrobial and Antioxidant Secondary Metabolites from Trifolium baccarinii Chiov. (Fabaceae) and Their Mechanisms of Antibacterial Action” (BioMed Research International, 2021).
Converted amounts (≈) assume the structure as drawn. Marks after values point to notes of the source that are not given here.

Tests used:
[1] = DPPH free radical scavenging assay; settings: mean ± SD
Description: The free radical scavenging activity of extracts and compounds was evaluated according to the described method. The EC50 (μg/mL), which is the amount of sample necessary to inhibit by 50% the absorbance of free radical DPPH, was calculated. Vitamin C was used as a standard control. All the analyses were carried out in triplicate and repeated three times.

[2] = system: Gram-positive (S. aureus, S. epidermidis) and Gram-negative (P. aeruginosa) bacteria; set-up: method as in PMID 26887239; settings: cited from earlier work
[3] = system: methicillin-resistant Staphylococcus aureus 04 (MRSA04); experiment: Broth microdilution MIC/MMC; type: cell-based
Description: (§1) The antimicrobial activity was performed against five bacterial and two fungal species. The selected microorganisms were the Gram-positive (Staphylococcus aureus ATCC25923, methicillin-resistant Staphylococcus aureus 03 (MRSA03), and methicillin-resistant Staphylococcus aureus 04 (MRSA04)) and Gram-negative (Pseudomonas aeruginosa ATCC27853 and Escherichia coli S2(1)) bacteria and yeast strains of Candida albicans ATCC10231 and Cryptococcus neoformans H99. These microorganisms were taken from our laboratory collection. The fungal and bacterial strains were conserved on Sabouraud Dextrose Agar (SDA, Conda, Madrid, Spain) and nutrient agar (NA, Conda) slants, respectively.
(§2) The antimicrobial activity was investigated by determining the minimum inhibitory concentrations (MICs), minimum bactericidal concentrations (MBC), and minimum fungicidal concentrations (MFCs). MICs of extracts/compounds were monitored using the broth microdilution method. Dimethyl sulfoxide (DMSO, Fisher Chemicals) was used to dissolve the test sample to produce a stock solution that was twofold serially diluted in Mueller-Hinton broth (MHB) for bacteria and Sabouraud Dextrose Broth (SDB) for fungi to obtain a concentration range of 4096 to 0.25 μg/mL. One hundred microliters of each concentration was introduced into a well (96-well microplate) containing 90 μL of SDB or MHB and 10 μL of inoculum (at 1 × 10^6 CFU/mL for bacteria and 1 × 10^5 spores/mL for yeasts) which were added to obtain a final concentration range of 2048 to 0.125 μg/mL. Plates were covered and incubated on the shaker at 37°C, 30°C, and 30°C during 24 h, 48 h, and 72 h for bacteria, Candida albicans, and Cryptococcus neoformans, respectively. The MICs were visually assessed after the incubation period and were considered the lowest sample concentration that inhibits the growth or the visual growth of the organism.
(§3) The positive controls were oxacillin (Sigma-Aldrich, Steinheim, Germany) for bacteria and nystatin (Sigma-Aldrich, Steinheim, Germany) for yeasts, and the negative control was broth with 20 μL of DMSO. The assay was carried out in triplicate.

[4] = system: Cryptococcus neoformans H99; experiment: Broth microdilution MIC/MMC; type: cell-based
Description: as §1, §2, §3

[5] = system: Staphylococcus aureus ATCC25923; experiment: Broth microdilution MIC/MMC; type: cell-based
Description: as §1, §2, §3

[6] = system: Pseudomonas aeruginosa ATCC27853; experiment: Broth microdilution MIC/MMC; type: cell-based
Description: as §1, §2, §3

[7] = system: methicillin-resistant Staphylococcus aureus 03 (MRSA03); experiment: Broth microdilution MIC/MMC; type: cell-based
Description: as §1, §2, §3

[8] = system: Candida albicans ATCC10231; experiment: Broth microdilution MIC/MMC; type: cell-based
Description: as §1, §2, §3

Escherichia coli S2(1) = experiment: Broth microdilution MIC/MMC; type: cell-based
Description: as §1, §2, §3

[9] = set-up: method as in doi:10.22159/ijpps.2017v9i2.13964; settings: cited from earlier work
[10] = set-up: method as in doi:10.22159/ijpps.2017v9i2.13964; settings: cited from earlier work; remark: listed apart in the source
[11] = set-up: method as in doi:10.22159/ijpps.2017v9i2.13964; settings: cited from earlier work; remark: listed apart in the source
[12] = Gallic acid equivalent antioxidant capacity (GEAC) assay; settings: ABTS radical, 420 nm, 240 s; mean ± SD
Description: The GEAC test was performed as described previously with some slight modifications. The laccase was purified from Sclerotinia sclerotiorum according to the described protocol. 20 μL of laccase (1 mM stock solution), 20 μL of test sample, 10 μL of ABTS (2,2′-azino-bis(3-ethylbenzothiazoline-6-sulfonic acid) (74 mM stock solution), and 950 μL of acetate buffer (pH = 5.0, 100 mM) were added in a quartz cuvette. The concentrations of the samples in the assay mixture were 800, 400, 200, 100, and 10 μg/mL for the extracts and 200, 100, 50, 25, and 12.5 μg/mL for the isolated compounds. The content of the generated ABTS^●+ radical was measured at 420 nm after 240 s reaction time and was converted to gallic acid equivalents by the use of a calibration curve (Pearson's correlation coefficient: r = 0.998) constructed with 0, 4, 10, 14, 28, 56, and 84 μM gallic acid standards rather than Trolox. Experiments were done in triplicate and repeated three times with similar results.

[13] = set-up: method as in doi:10.22159/ijpps.2017v9i2.13964; settings: cited from earlier work; remark: listed apart in the source
[14] = set-up: method as in doi:10.22159/ijpps.2017v9i2.13964; settings: cited from earlier work; remark: listed apart in the source
[15] = system: yeasts (C. albicans, C. tropicalis, and C. neoformans); set-up: method as in PMID 26887239; settings: cited from earlier work
[16] = system: tested bacteria and yeasts; experiment: Broth microdilution MIC/MMC, summary over all strains; type: cell-based
Description: as §1, §2, §3

[17] = Staphylococcus aureus ATCC25923
[18] = Pseudomonas aeruginosa ATCC27853

Which results are given for `COc1ccc(-c2coc3cc(O)ccc3c2=O)cc1` [compound 2, formononetin]?
DPPH free radical scavenging activity (EC50) [1]: 6.39 ± 0.62^e μg/mL; minimum inhibitory concentration [2]: 200 µg/mL (≈ 746 µM); MMC/MIC ([3]; MRSA04): 2; MBC ([3]; Staphylococcus aureus, MRSA04): 256 µg/mL (≈ 954 µM); MIC ([3]; Staphylococcus aureus, MRSA04, 24 h, 37°C, read-out: MIC): 128 µg/mL (≈ 477 µM); MFC ([4]; Cryptococcus neoformans H99): 64 µg/mL (≈ 239 µM); MMC/MIC ([4]; Cryptococcus neoformans H99): 1; MIC ([4]; Cryptococcus neoformans H99, 72 h, 30°C, read-out: MIC): 64 µg/mL (≈ 239 µM); MBC [5, 17]: 128 µg/mL (≈ 477 µM); MMC/MIC [5, 17]: 2; MIC ([5]; Staphylococcus aureus ATCC25923, 24 h, 37°C, read-out: MIC): 64 µg/mL (≈ 239 µM); MBC [6, 18]: 128 µg/mL (≈ 477 µM); MMC/MIC [6, 18]: 1; MIC ([6]; Pseudomonas aeruginosa ATCC27853, 24 h, 37°C, read-out: MIC): 128 µg/mL (≈ 477 µM); MMC/MIC ([7]; MRSA03): 2; MBC ([7]; Staphylococcus aureus, MRSA03): 256 µg/mL (≈ 954 µM); MIC ([7]; Staphylococcus aureus, MRSA03, 24 h, 37°C, read-out: MIC): 128 µg/mL (≈ 477 µM); MFC ([8]; Candida albicans ATCC10231): 128 µg/mL (≈ 477 µM); MMC/MIC ([8]; Candida albicans ATCC10231): 2; MIC ([8]; Candida albicans ATCC10231, 48 h, 30°C, read-out: MIC): 64 µg/mL (≈ 239 µM); MBC (Escherichia coli S2(1)): 128 µg/mL (≈ 477 µM); MMC/MIC (Escherichia coli S2(1)): 2; MIC (Escherichia coli S2(1); 24 h, 37°C, read-out: MIC): 64 µg/mL (≈ 239 µM); IC50 against DPPH [9]: 4.65 µg/mL (≈ 17.3 µM); IC50 against hydroxyl radical [10]: 9.48 µg/mL (≈ 35.3 µM); IC50 against hydrogen peroxide [11]: 4.75 µg/mL (≈ 17.7 µM); Gallic acid equivalent antioxidant capacity (GEAC) [12]: 77.91 ± 0.59^e μg/mL; IC50 against nitric oxide [13]: 5.0 µg/mL (≈ 18.6 µM); IC50 against superoxide radical [14]: 4.27 µg/mL (≈ 15.9 µM); minimum inhibitory concentration [15]: 25 µg/mL (≈ 93.2 µM); antimicrobial activity class of pure compounds by cutoff points ([16]; against specific microorganism, cutoff points of ref 33): moderate/low; MIC ([16]; read-out: MIC (range over the tested microorganisms)): 64 to 128 µg/mL (≈ 239 to 477 µM)
